The record followed here is US12685312B2, “Sulfonamide apyrase inhibitors” (Texas Crop Science, Inc., priority 2022, dated 2026).

The test system of the assay is apyrase. The assay is described as follows: Screen for apyrase inhibitors (Method 1, in vitro phosphate-release absorbance assay). In kind it is biochemical. Conditions: inhibitor conc at 1 mM stock, 1 hr room temperature, absorbance 630 nm; rounded average of two assay results. In a few lines:
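Phosphate-release colorimetric assay (Windsor method) in 60 mM Hepes, 3 mM MgCl2, 3 mM CaCl2, 3 mM ATP, pH 6.5, with compound or DMSO control added. Released phosphate developed with ammonium molybdate and ascorbic acid/TCA, then stopped with citrate/acetic acid.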
With `NS(=O)(=O)c1cccc(NC(=O)c2cccc(S(=O)(=O)N3CCc4ccccc43)c2)c1` [I-529, 3-(indolin-1-ylsulfonyl)-N-(3-sulfamoylphenyl)benzamide], the “% Inhibition of Apyrase” value is 55%.

`O=C1Cc2cccc(NS(=O)(=O)c3ccc(Cl)cc3)c2N1` [I-844, 4-chloro-N-(2-oxoindolin-7-yl)benzenesulfonamide]: the “% Inhibition of Apyrase” value is listed as 5%.

On to `COc1cc(C(=O)Nc2cccc(NS(=O)(=O)c3ccc(C)c(C)c3)c2)cc2c1OCCO2` [I-339, N-(3-((3,4-dimethylphenyl)sulfonamido)phenyl)-8-methoxy-2,3-dihydrobenzo[b][1,4]dioxine-6-carboxamide], for which the “% Inhibition of Apyrase” value is 69%.

For the compound `Cc1cccc(NC(=O)c2ccc(NS(=O)(=O)c3ccc(F)c(Cl)c3)cc2)c1` [I-905, 4-((3-chloro-4-fluorophenyl)sulfonamido)-N-(m-tolyl)benzamide], the “% Inhibition of Apyrase” value was determined as 61%.

Regarding `Cc1ccc(NC(=O)c2ccc(NS(=O)(=O)c3ccccc3)cc2)cc1C` [I-917, N-(3,4-dimethylphenyl)-4-(phenylsulfonamido)benzamide], the “% Inhibition of Apyrase” value is on record as 58%.

For `Cc1ccc(NC(=O)c2ccc(Cl)c(S(=O)(=O)N3CCc4ccccc43)c2)cc1` [I-453, 4-chloro-3-(indolin-1-ylsulfonyl)-N-(p-tolyl)benzamide], the “% Inhibition of Apyrase” value is on record as 60%.

As to `O=C(Nc1cccc(S(=O)(=O)N2CCCC2)c1)c1ccccc1NS(=O)(=O)c1cccc(C(F)(F)F)c1` [I-180, N-(3-(pyrrolidin-1-ylsulfonyl)phenyl)-2-((3-(trifluoromethyl)phenyl)sulfonamido) benzamide], the “% Inhibition of Apyrase” value came out at 75%.

With `Cn1cc(C(=O)Nc2cccc(S(=O)(=O)Nc3ccc(Br)cc3)c2)cn1` [I-335, N-(3-(N-(4-bromophenyl)sulfamoyl)phenyl)-1-methyl-1H-pyrazole-4-carboxamide], the “% Inhibition of Apyrase” value is 30%.

With `O=C(c1ccc(Cl)c(S(=O)(=O)N2CCc3ccccc32)c1)N1CCc2ccccc21` [I-448, (4-chloro-3-(indolin-1-ylsulfonyl)phenyl)(indolin-1-yl)methanone], the “% Inhibition of Apyrase” value is recorded as 61%.

For the compound `O=C1Cc2cc(S(=O)(=O)Nc3ccccc3NC(=O)c3ccc(Cl)cc3)ccc2N1` [I-843, 4-chloro-N-(2-((2-oxoindoline)-5-sulfonamido)phenyl)benzamide], the “% Inhibition of Apyrase” value is 5%.

As for `COc1ccc(S(=O)(=O)N2CCc3ccccc32)cc1C(=O)Nc1cccc(C#N)c1` [I-442, N-(3-cyanophenyl)-5-(indolin-1-ylsulfonyl)-2-methoxybenzamide], the “% Inhibition of Apyrase” value is recorded as 61%.

On to `COc1ccccc1NS(=O)(=O)c1ccc(C(=O)Nc2ccc3c(c2)OCO3)cc1` [I-409, N-(benzo[d][1,3]dioxol-5-yl)-4-(N-(2-methoxyphenyl)sulfamoyl)benzamide], for which the “% Inhibition of Apyrase” value amounted to 30%.

For `COc1ccccc1N(C)S(=O)(=O)c1ccc(C(=O)N2CCc3ccc([N+](=O)[O-])cc32)cc1` [I-869, N-(2-methoxyphenyl)-N-methyl-4-(6-nitroindoline-1-carbonyl)benzenesulfonamide], the “% Inhibition of Apyrase” value amounted to 57%.

As to `O=C(Nc1ccccc1NS(=O)(=O)c1ccc2oc(=O)ccc2c1)c1ccc(Cl)cc1` [I-841, 4-chloro-N-(2-((2-oxo-2H-chromene)-6-sulfonamido)phenyl)benzamide], the “% Inhibition of Apyrase” value was 8%.

As to `COc1ccc(NS(=O)(=O)c2cccc(NC(=O)c3ccc(Cl)s3)c2)cc1` [I-749, 5-chloro-N-(3-(N-(4-methoxyphenyl)sulfamoyl)phenyl)thiophene-2-carboxamide], the “% Inhibition of Apyrase” value was determined as 41%.

With `O=C(Nc1ccc(N2CCOCC2)cc1)c1cccc(S(=O)(=O)N2CCc3ccccc32)c1` [I-601, 3-(indolin-1-ylsulfonyl)-N-(4-morpholinophenyl)benzamide], the “% Inhibition of Apyrase” value is on record as 29%.

Regarding `O=C(Nc1cccc(C(F)(F)F)c1)c1cccc(NS(=O)(=O)c2ccc(Cl)c(C(=O)O)c2)c1` [I-321, 2-chloro-5-(N-(3-((3-(trifluoromethyl)phenyl)carbamoyl)phenyl)sulfamoyl)benzoic acid], the “% Inhibition of Apyrase” value amounted to 57%.

For the compound `Cc1ccc(C)c(S(=O)(=O)Nc2cccc(C(=O)Nc3ccc(F)cn3)c2)c1` [I-641, 3-((2,5-dimethylphenyl)sulfonamido)-N-(5-fluoropyridin-2-yl)benzamide], the “% Inhibition of Apyrase” value came out at 55%.

Take `O=C(Nc1ccc(NS(=O)(=O)c2ccc3c(c2)OCCO3)cc1)c1cccc(N2CCCC2=O)c1` [I-886, N-(4-((2,3-dihydrobenzo[b][1,4]dioxine)-6-sulfonamido)phenyl)-3-(2-oxopyrrolidin-1-yl)benzamide]: the “% Inhibition of Apyrase” value stood at 43%.

Consider `NC(=O)c1cc(NC(=O)c2cccc(NS(=O)(=O)c3ccc4c(c3)OCCO4)c2)ccc1Cl` [I-325, N-(3-carbamoyl-4-chlorophenyl)-3-((2,3-dihydrobenzo[b][1,4]dioxine)-6-sulfonamido)benzamide], for which the “% Inhibition of Apyrase” value came out at 34%.

For `Cc1ccccc1NS(=O)(=O)c1ccc(C(=O)N2c3ccccc3CC2C)cc1` (stereo not shown) [I-879, 4-(2-methylindoline-1-carbonyl)-N-(o-tolyl)benzenesulfonamide], the “% Inhibition of Apyrase” value is 53%.

Consider `O=C(c1cccc(S(=O)(=O)Nc2cccc(C(F)(F)F)c2)c1)N1CCc2ccccc21` [I-475, 3-(indoline-1-carbonyl)-N-(3-(trifluoromethyl)phenyl)benzenesulfonamide], for which the “% Inhibition of Apyrase” value was found to be 59%.

With `O=C(Nc1cccc(S(=O)(=O)Nc2ccccc2Cl)c1)c1ccc([N+](=O)[O-])s1` [I-730, N-(3-(N-(2-chlorophenyl)sulfamoyl)phenyl)-5-nitrothiophene-2-carboxamide], the “% Inhibition of Apyrase” value was found to be 55%.

As for `Cc1cc(C(=O)Nc2cccc(S(=O)(=O)Nc3ccc(Br)cc3)c2)ccc1[N+](=O)[O-]` [I-182, N-(3-(N-(4-bromophenyl)sulfamoyl)phenyl)-3-methyl-4-nitrobenzamide], the “% Inhibition of Apyrase” value is on record as 68%.

Turning to `Cc1ccc(NS(=O)(=O)c2ccc(C(=O)Nc3cccc(C#N)c3)cc2)cc1C` [I-384, N-(3-cyanophenyl)-4-(N-(3,4-dimethylphenyl)sulfamoyl)benzamide], the “% Inhibition of Apyrase” value came to 66%.

In the case of `COc1ccc(NC(=O)c2cccc(S(=O)(=O)N3c4ccccc4CC3C)c2)cc1OC` (stereo not shown) [I-449, N-(3,4-dimethoxyphenyl)-3-((2-methylindolin-1-yl)sulfonyl)benzamide], the “% Inhibition of Apyrase” value was found to be 61%.

Turning to `O=C(Nc1ccc(OC(F)F)c(Cl)c1)c1ccccc1S(=O)(=O)N1CCCCC1` [I-354, N-(3-chloro-4-(difluoromethoxy)phenyl)-2-(piperidin-1-ylsulfonyl)benzamide], the “% Inhibition of Apyrase” value turned out to be 43%.

For the compound `COc1ccc(S(=O)(=O)N2CCc3ccccc32)cc1C(=O)Nc1ccccc1F` [I-538, N-(2-fluorophenyl)-5-(indolin-1-ylsulfonyl)-2-methoxybenzamide], the “% Inhibition of Apyrase” value was 54%.

For `O=C(NCCCCO)c1cccc(S(=O)(=O)Nc2ccc(Br)cc2)c1` [I-286, 3-(N-(4-bromophenyl)sulfamoyl)-N-(4-hydroxybutyl)benzamide], the “% Inhibition of Apyrase” value is 13%.

For the compound `O=C(Nc1nnc[nH]1)c1cccc(NS(=O)(=O)c2ccc(Br)cc2)c1` [I-672, 3-((4-bromophenyl)sulfonamido)-N-(4H-1,2,4-triazol-3-yl)benzamide], the “% Inhibition of Apyrase” value came to 1%.

For `O=C(Nc1cccc(S(=O)(=O)N2CCCCC2)c1)c1cccc(S(=O)(=O)N2CCc3ccccc32)c1` [I-446, 3-(indolin-1-ylsulfonyl)-N-(3-(piperidin-1-ylsulfonyl)phenyl)benzamide], the “% Inhibition of Apyrase” value worked out at 61%.

On to `Cc1ccc(F)c(NC(=O)c2cccc(S(=O)(=O)Nc3ccc4c(c3)OCO4)c2)c1` [I-252, 3-(N-(benzo[d][1,3]dioxol-5-yl)sulfamoyl)-N-(2-fluoro-5-methylphenyl)benzamide], for which the “% Inhibition of Apyrase” value was determined as 62%.

On to `O=C1CCc2cc(S(=O)(=O)Nc3cccc(C(=O)Nc4cccc(C(F)(F)F)c4)c3)ccc2N1` [I-218, 3-((2-oxo-1,2,3,4-tetrahydroquinoline)-6-sulfonamido)-N-(3-(trifluoromethyl)phenyl)benzamide], for which the “% Inhibition of Apyrase” value turned out to be 62%.

In the case of `O=C(Nc1ccc(F)cc1)c1ccc(S(=O)(=O)Nc2ccccc2Cl)cc1` [I-400, 4-(N-(2-chlorophenyl)sulfamoyl)-N-(4-fluorophenyl)benzamide], the “% Inhibition of Apyrase” value was found to be 41%.

In the case of `Cc1ccc(NC(=O)c2cccc(NS(=O)(=O)c3ccc(C)c(F)c3)c2)nc1` [I-655, 3-((3-fluoro-4-methylphenyl)sulfonamido)-N-(5-methylpyridin-2-yl)benzamide], the “% Inhibition of Apyrase” value was determined as 35%.

In the case of `O=C(Nc1ccc2c(c1)CCC2)c1ccc(NS(=O)(=O)c2ccc3c(c2)OCCO3)cc1` [I-910, N-(2,3-dihydro-1H-inden-5-yl)-4-((2,3-dihydrobenzo[b][1,4]dioxine)-6-sulfonamido)benzamide], the “% Inhibition of Apyrase” value was 60%.

As to `CCOc1ccc(NS(=O)(=O)c2cccc(C(=O)N3CCCc4ccccc43)c2)cc1` [I-568, N-(4-ethoxyphenyl)-3-(1,2,3,4-tetrahydroquinoline-1-carbonyl)benzenesulfonamide], the “% Inhibition of Apyrase” value was 51%.

As to `O=C(Nc1cccc([N+](=O)[O-])c1)c1cccc(S(=O)(=O)N2CCc3ccccc32)c1` [I-38, 3-(indolin-1-ylsulfonyl)-N-(3-nitrophenyl)benzamide], the “% Inhibition of Apyrase” value was found to be 14%.

For the compound `O=C(c1cc(S(=O)(=O)Nc2cccc(Cl)c2)c(Cl)cc1Cl)N1CCCc2ccccc21` [I-551, 2,4-dichloro-N-(3-chlorophenyl)-5-(1,2,3,4-tetrahydroquinoline-1-carbonyl)benzenesulfonamide], the “% Inhibition of Apyrase” value is 53%.

Take `COC(=O)c1cccc2c1CCCN2C(=O)c1cccc(S(=O)(=O)N(C)c2ccccc2)c1` [I-580, methyl 1-(3-(N-methyl-N-phenylsulfamoyl)benzoyl)-1,2,3,4-tetrahydroquinoline-5-carboxylate]: the “% Inhibition of Apyrase” value is 47%.
